This series is described as follows: all-hydrocarbon stapling by ring-closing olefin metathesis between S5/S5 (i,i+4) or R8/S5 (i,i+7) olefinic residues, Grubbs 1st-generation catalyst (10 mM in DCE per text; 6 mM per schemes), 2 x 2 h, on Rink Amide MBHA resin. The following applies: the molecule shown is the open-chain precursor, 35.0 °C, 60 steps.
[1] abbreviates: 21-membered ring, 1,2-dichloroethane, 4.0 h.

`C=CCCC[C@](C)(NC(=O)[C@H](CCCCNC(=O)OC(C)(C)C)NC(=O)[C@H](CC(C)C)NC(=O)[C@@H](NC(=O)[C@H](CCCCNC(=O)OC(C)(C)C)NC(=O)[C@H](CCCCNC(=O)OC(C)(C)C)NC(=O)[C@H](CC(C)C)NC(=O)[C@H](CC(=O)NC(c1ccccc1)(c1ccccc1)c1ccccc1)NC(=O)[C@H](CC(=O)OC(C)(C)C)NC(=O)[C@H](CCCCNC(=O)OC(C)(C)C)NC(=O)[C@@H](NC(=O)[C@H](CCC(=O)OC(C)(C)C)NC(=O)[C@@H]1CCCN1C(=O)[C@H](COC(C)(C)C)NC(=O)[C@H](CC(C)C)NC(=O)[C@H](CCCCNC(=O)OC(C)(C)C)NC(=O)[C@@H](NC(=O)OCC1c2ccccc2-c2ccccc21)[C@@H](C)CC)[C@@H](C)OC(C)(C)C)C(C)C)C(=O)N[C@@H](C)C(=O)N[C@H](C(=O)N[C@@H](CCCCNC(=O)OC(C)(C)C)C(=O)N[C@@](C)(CCCC=C)C(=O)N[C@@H](C)C(=O)N[C@H](C(=O)N[C@@H](C)C(=O)N[C@H](C(=O)N[C@@H](C)C(=O)N[C@@H](CCCCNC(=O)OC(C)(C)C)C(=O)N[C@@H](CCSC)C(=O)N[C@H](C(N)=O)C(C)C)C(C)C)[C@@H](C)CC)[C@@H](C)CC`: the ring closure, overall yield under setting [1] amounted to 18.5%.
Same read-out and setting: the figure for `C=CCCC[C@](C)(NC(=O)[C@H](CC(=O)OC(C)(C)C)NC(=O)[C@H](CCCCNC(=O)OC(C)(C)C)NC(=O)[C@@H](NC(=O)[C@](C)(CCCC=C)NC(=O)[C@@H]1CCCN1C(=O)[C@H](COC(C)(C)C)NC(=O)[C@H](CC(C)C)NC(=O)[C@H](CCCCNC(=O)OC(C)(C)C)NC(=O)[C@@H](NC(=O)OCC1c2ccccc2-c2ccccc21)[C@@H](C)CC)[C@@H](C)OC(C)(C)C)C(=O)N[C@@H](CC(C)C)C(=O)N[C@@H](CCCCNC(=O)OC(C)(C)C)C(=O)N[C@@H](CCCCNC(=O)OC(C)(C)C)C(=O)N[C@H](C(=O)N[C@@H](CC(C)C)C(=O)N[C@@H](CCCCNC(=O)OC(C)(C)C)C(=O)NCC(=O)N[C@@H](C)C(=O)N[C@H](C(=O)N[C@@H](CCCCNC(=O)OC(C)(C)C)C(=O)NCC(=O)N[C@@H](C)C(=O)N[C@H](C(=O)N[C@@H](C)C(=O)N[C@H](C(=O)N[C@@H](C)C(=O)N[C@@H](CCCCNC(=O)OC(C)(C)C)C(=O)N[C@@H](CCSC)C(=O)N[C@H](C(N)=O)C(C)C)C(C)C)[C@@H](C)CC)[C@@H](C)CC)C(C)C` is 6.43%.
As for “final: H-I-K-L-S-P-[S5]-T-K-D-[S5]-L-K-K-V-L-K-G-[S5]-I-K-G-[S5]-I-A-V-A-K-M-V-NH2; 1st RCM on Fmoc-[S5]-I-K-G-[S5]-I-A-V-A-K-M-V-resin, 2nd RCM on Fmoc-[S5]-T-K-D-[S5]-L-K-K-V-L-K-G-[S5]-I-K-G-[S5]-I-A-V-A-K-M-V-resin (C-terminal S5 pair already stapled)”, the ring closure, overall yield (21-membered ring, 1,2-dichloroethane) stood at 5.43%.
In turn, `C=CCCC[C@](C)(NC(=O)CNC(=O)[C@H](CCCCNC(=O)OC(C)(C)C)NC(=O)[C@@H](NC(=O)[C@](C)(CCCC=C)NC(=O)CNC(=O)[C@H](CCCCNC(=O)OC(C)(C)C)NC(=O)[C@H](CC(C)C)NC(=O)[C@@H](NC(=O)[C@H](CCCCNC(=O)OC(C)(C)C)NC(=O)[C@H](CCCCNC(=O)OC(C)(C)C)NC(=O)[C@H](CC(C)C)NC(=O)[C@H](CC(=O)NC(c1ccccc1)(c1ccccc1)c1ccccc1)NC(=O)[C@H](CC(=O)OC(C)(C)C)NC(=O)[C@H](CCCCNC(=O)OC(C)(C)C)NC(=O)[C@@H](NC(=O)[C@H](CCC(=O)OC(C)(C)C)NC(=O)[C@@H]1CCCN1C(=O)[C@H](COC(C)(C)C)NC(=O)[C@H](CC(C)C)NC(=O)[C@H](CCCCNC(=O)OC(C)(C)C)NC(=O)[C@@H](NC(=O)OCC1c2ccccc2-c2ccccc21)[C@@H](C)CC)[C@@H](C)OC(C)(C)C)C(C)C)[C@@H](C)CC)C(=O)N[C@H](C(=O)N[C@@H](C)C(=O)N[C@H](C(=O)N[C@@H](C)C(=O)N[C@@H](CCCCNC(=O)OC(C)(C)C)C(=O)N[C@@H](CCSC)C(=O)N[C@H](C(N)=O)C(C)C)C(C)C)[C@@H](C)CC` yielded a ring closure, overall yield under setting [1] of 19.9%.
The same measure, in the same setting: the figure for `C=CCCC[C@](C)(NC(=O)[C@@H](NC(=O)[C@H](C)NC(=O)CNC(=O)[C@H](CCCCNC(=O)OC(C)(C)C)NC(=O)[C@H](CC(C)C)NC(=O)[C@@H](NC(=O)[C@H](CCCCNC(=O)OC(C)(C)C)NC(=O)[C@H](CCCCNC(=O)OC(C)(C)C)NC(=O)[C@H](CC(C)C)NC(=O)[C@H](CC(=O)NC(c1ccccc1)(c1ccccc1)c1ccccc1)NC(=O)[C@H](CC(=O)OC(C)(C)C)NC(=O)[C@H](CCCCNC(=O)OC(C)(C)C)NC(=O)[C@@H](NC(=O)[C@H](CCC(=O)OC(C)(C)C)NC(=O)[C@@H]1CCCN1C(=O)[C@H](COC(C)(C)C)NC(=O)[C@H](CC(C)C)NC(=O)[C@H](CCCCNC(=O)OC(C)(C)C)NC(=O)[C@@H](NC(=O)OCC1c2ccccc2-c2ccccc21)[C@@H](C)CC)[C@@H](C)OC(C)(C)C)C(C)C)[C@@H](C)CC)C(=O)NCC(=O)N[C@@H](C)C(=O)N[C@H](C(=O)N[C@@](C)(CCCC=C)C(=O)N[C@H](C(=O)N[C@@H](C)C(=O)N[C@@H](CCCCNC(=O)OC(C)(C)C)C(=O)N[C@@H](CCSC)C(=O)N[C@H](C(N)=O)C(C)C)C(C)C)[C@@H](C)CC` is 14.1%.
Regarding `C=CCCCCCC[C@@](C)(NC(=O)[C@H](CC(=O)OC(C)(C)C)NC(=O)[C@H](CCCCNC(=O)OC(C)(C)C)NC(=O)[C@@H](NC(=O)[C@H](CCC(=O)OC(C)(C)C)NC(=O)[C@@H]1CCCN1C(=O)[C@H](COC(C)(C)C)NC(=O)[C@H](CC(C)C)NC(=O)[C@H](CCCCNC(=O)OC(C)(C)C)NC(=O)[C@@H](NC(=O)OCC1c2ccccc2-c2ccccc21)[C@@H](C)CC)[C@@H](C)OC(C)(C)C)C(=O)N[C@@H](CC(C)C)C(=O)N[C@@H](CCCCNC(=O)OC(C)(C)C)C(=O)N[C@@H](CCCCNC(=O)OC(C)(C)C)C(=O)N[C@H](C(=O)N[C@@H](CC(C)C)C(=O)N[C@@H](CCCCNC(=O)OC(C)(C)C)C(=O)N[C@@](C)(CCCC=C)C(=O)N[C@@H](C)C(=O)N[C@H](C(=O)N[C@@H](CCCCNC(=O)OC(C)(C)C)C(=O)NCC(=O)N[C@@H](C)C(=O)N[C@H](C(=O)N[C@@H](C)C(=O)N[C@H](C(=O)N[C@@H](C)C(=O)N[C@@H](CCCCNC(=O)OC(C)(C)C)C(=O)N[C@@H](CCSC)C(=O)N[C@H](C(N)=O)C(C)C)C(C)C)[C@@H](C)CC)[C@@H](C)CC)C(C)C`, under “33-membered ring, 1,2-dichloroethane, 4.0 h”, the ring closure, overall yield came out at 6.51%.
Under setting [1], `C=CCCC[C@](C)(NC(=O)CNC(=O)[C@H](CCCCNC(=O)OC(C)(C)C)NC(=O)[C@@H](NC(=O)[C@H](C)NC(=O)CNC(=O)[C@H](CCCCNC(=O)OC(C)(C)C)NC(=O)[C@H](CC(C)C)NC(=O)[C@@H](NC(=O)[C@H](CCCCNC(=O)OC(C)(C)C)NC(=O)[C@H](CCCCNC(=O)OC(C)(C)C)NC(=O)[C@H](CC(C)C)NC(=O)[C@H](CC(=O)NC(c1ccccc1)(c1ccccc1)c1ccccc1)NC(=O)[C@H](CC(=O)OC(C)(C)C)NC(=O)[C@H](CCCCNC(=O)OC(C)(C)C)NC(=O)[C@@H](NC(=O)[C@H](CCC(=O)OC(C)(C)C)NC(=O)[C@@H]1CCCN1C(=O)[C@H](COC(C)(C)C)NC(=O)[C@H](CC(C)C)NC(=O)[C@H](CCCCNC(=O)OC(C)(C)C)NC(=O)[C@@H](NC(=O)OCC1c2ccccc2-c2ccccc21)[C@@H](C)CC)[C@@H](C)OC(C)(C)C)C(C)C)[C@@H](C)CC)C(=O)N[C@H](C(=O)N[C@@H](C)C(=O)N[C@H](C(=O)N[C@@](C)(CCCC=C)C(=O)N[C@@H](CCCCNC(=O)OC(C)(C)C)C(=O)N[C@@H](CCSC)C(=O)N[C@H](C(N)=O)C(C)C)C(C)C)[C@@H](C)CC` came in with a ring closure, overall yield of 13.1%.

(Values after article PMC9081086, “Stapling strategy enables improvement of antitumor activity and proteolytic stability of host-defense peptide hymenochirin-1B” (RSC Advances, 2018).)
